Data: patent publication US12134607B2, “Crystals of tetrahydronaphthyl urea derivative” (MOCHIDA PHARMACEUTICAL CO., LTD., priority 2017, dated 2024)
Values after ≈ are worked out from the molar mass of the structure shown. Read-outs that look alike come from different tables or passages of the source.

Assays:
Storage stability test = type: physicochemical; conditions: for Moisture absorption: during the storage period; for Chemical and physical stability over the test period: storage for 1 month, result in words
Description: For the stability test, approximately 20 mg of the test sample was stored at 25° C./60% RH or at 40° C./75% RH in open or closed condition for 1 month using a small environmental tester SH-641 (manufactured by Espec), and changes in purity and in crystalline form were observed.
For purity measurement, equipment of Waters ACQUITY UPLC H-Class (manufactured by Waters) and column of Waters ACQUITY BEH C18 (particle diameter […], size 2.1×50 mm) are used. For the mobile phase, 10 mmol/L ammonium bicarbonate buffer pH 9.0 and acetonitrile were used; and the test sample solution at 100 μg/mL in the mixture solvent of THF (tetrahydrofuran):10 mmol/L ammonium bicarbonate buffer (20:80) was prepared.
(Test Example 2) Storage Stability Test
The type I (Example 2), III (Example 3), V (Example 4) and VI (Example 5) crystals (each about 20 mg) of 1-((1R,2R)-2-hydroxy-4,4-dimethyl-1,2,3,4-tetrahydronaphthalen-1-yl)-3-(5-methyl-6-(2-methylpyrimidin-5-yl)-2-phenylpyridin-3-yl)urea obtained in the above Examples 2 to 5 were stored in glass bottles under the respective conditions described in Table 7. After completion of the storage period, the retrieved sample was confirmed on the purity by high performance liquid chromatography and on the crystal form by powder X-ray diffraction analysis as in the Examples.

[1] = Determination of equilibrium solubility in phosphate buffer solution with pH 6.8; type: physicochemical; conditions: pH 6.8 phosphate buffer, mean value of three measurements
Text: (Test Example 1) Determination of Equilibrium Solubility (Determination of Solubility in Phosphate Buffer Solution with pH 6.8)
Each of the equilibrium solubilities (solubility in phosphate buffer solution with pH 6.8) of Type I (Example 2), III (Example 3), V (Example 4) and VI crystals (Example 5) of 1-((1R,2R)-2-hydroxy-4,4-dimethyl-1,2,3,4-tetrahydronaphthalen-1-yl)-3-(5-methyl-6-(2-methylpyrimidin-5-yl)-2-phenylpyridin-3-yl)urea obtained in the above (Example 2) to (Example 5) was determined as follows:
Water was added a weighed potassium dihydrogen phosphate of 2.7 g to make 100 mL volume to prepare 0.2 mol/L potassium dihydrogen phosphate solution. Water was added a weighed disodium hydrogen phosphate […] of 7.2 g to make 100 mL volume to prepare 0.2 mol/L disodium hydrogen phosphate solution. A pH 6.8 phosphate buffer solution was prepared by diluting a mixture of 0.2 mol/L potassium dihydrogen phosphate solution (14.8 mL) and 0.2 mol/L disodium hydrogen phosphate solution (10.0 mL) with water (173.6 mL).
Approximately 1 mg of the each crystal from (Example 2) to (Example 5) was weighed into a screw tube, and a pH 6.8 phosphate buffer solution (1 mL) was added. An isothermal shaker (M-BR-022UP) was used to incubate the sample at 37° C. and 1000 rpm for 24 hours. 100 μL solution were sampled at 1, 2, 6, and 24 hours after the start of incubation, and were filtered using a centrifuge (HITACHI, Himac cF 9RX, at 25° C., at 1500 rpm, for 30 seconds) with a filter (Millipore: Multiscreen, MSSLBPC10) so as to remove insoluble materials. A 20 μL of the filtrate was quantified, and diluted with a solution (180 μL, pH 9.0) of 20 vol % tetrahydrofuran and 80 vol % ammonium bicarbonate aqueous solution (10 mM). A 10 μL of the prepared solution was quantified, and diluted with a solution (190 μL, pH 9.0) of 20 vol % tetrahydrofuran and 80 vol % ammonium bicarbonate aqueous solution (10 mM). The prepared solution was analyzed by ultra performance liquid chromatography (UPLC) under the following measurement conditions, and the concentration of the compound in the solution was calculated based on a previously prepared calibration curve. Three times of measurements were made for each example compound, and the mean values and standard deviations of the three measurements are shown as a result in Table 6.
<UPLC measurement conditions> Equipment: ACQUITY UPLC H-Class (Waters) Detector: PDA (200-500 nm) Column: BEH C18 2.1×50 mm Measurement wavelength: 270 nm Column temperature: 40° C. Injection amount: 10 μL Mobile phase: • Solvent A, acetonitrile; • Solvent B, 10 mM ammonium bicarbonate aqueous solution (pH 9.0) Gradient conditions: […]

[2] = Pharmacokinetic study, single oral dose in rats; type: in vivo
Description: (Pharmacology Experiment 5): Pharmacokinetic Study
Plasma sample obtained by centrifugation of blood (12000×g, for 5 minutes, at 4° C.) was measured to determine plasma concentration of the test compound using high performance liquid chromatography/mass spectrometry. Similarly, concentrations of standard solutions containing the test compound at known concentrations (0.001, 0.002, 0.005, 0.01, 0.02, 0.05, 0.1, 0.2, 0.5, 1, 2, and 5 μg/mL) were measured. And then, the plasma concentration (μg/mL) of the compound (1) was calculated from the prepared calibration curve to obtain the maximum plasma concentration (Cmax (μg/mL)) and the area under the plasma concentration-time curve (AUC (μg·hr/mL)). Measurement conditions can be appropriately adjusted by a person skilled in the art.

[3] = Photostability test according to ICH Q1B; type: physicochemical
Description: (Test Example 3) Photostability Test
The type I (Example 2), III (Example 3), V (Example 4), and VI (Example 5) crystals (each about 20 mg) of 1-((1R,2R)-2-hydroxy-4,4-dimethyl-1,2,3,4-tetrahydronaphthalen-1-yl)-3-(5-methyl-6-(2-methylpyrimidin-5-yl)-2-phenylpyridin-3-yl)urea obtained in the above Examples 2 to 5 were placed in a transparent plastic container and covered, and were subjected to photostability test according to the ICH Q1B (Guidelines on Photostability Testing of New Active Substances and Medicinal Products) described in Table 8 (Here, the photostability test samples were stored at about 25° C. under separate lamps which respectively emits visible light and UV-A light so that the total light exposure should be 1.2 million lux hours and 200 W hours/m^2 or more, respectively. A 5-day study should be designated as “0.5 ICH” and a 10-day study as “1 ICH”). […] After completion of the test, the retrieved sample was confirmed on the purity by high performance liquid chromatography and on the crystal form by powder X-ray diffraction analysis as in the Examples.

[4] = 25° C./60% RH, closed for 1 month
[5] = 25° C./60% RH, open for 1 month
[6] = 40° C./75% RH, closed for 1 month
[7] = 40° C./75% RH, open for 1 month
[8] = Shielded from light by aluminum foil, 0.5 ICH
[9] = Shielded from light by aluminum foil, 1 ICH
[10] = Shielded from light by aluminum foil, Before the test
[11] = male Crl:CD (SD) rats, oral single dose 600 mg/kg in 0.5 w/v % methylcellulose 400

SMILES	Chemical purity (%) (Storage stability test; [4])	Crystalline form after completion of storage period (Storage stability test; [4])	Chemical purity (%) (Storage stability test; [5])	Crystalline form after completion of storage period (Storage stability test; [5])	Chemical purity (%) (Storage stability test; [6])	Crystalline form after completion of storage period (Storage stability test; [6])	Chemical purity (%) (Storage stability test; [7])	Crystalline form after completion of storage period (Storage stability test; [7])	Chemical purity (%) (Storage stability test; Before the test)	Crystalline form after completion of storage period (Storage stability test; Before the test)	Chemical purity (%) ([3]; Exposure, 0.5 ICH (5-day))	Crystalline form after completion of storage period ([3]; Exposure, 0.5 ICH (5-day))	Chemical purity (%) ([3]; Exposure, 1 ICH (10-day))	Crystalline form after completion of storage period ([3]; Exposure, 1 ICH (10-day))	Chemical purity (%) ([3]; Exposure, Before the test)	Crystalline form after completion of storage period ([3]; Exposure, Before the test)	Chemical purity (%) [3, 8] [%]	Crystalline form after completion of storage period [3, 8]	Chemical purity (%) [3, 9] [%]	Crystalline form after completion of storage period [3, 9]	other results
Cc1ncc(-c2nc(-c3ccccc3)c(NC(=O)N[C@@H]3c4ccccc4C(C)(C)C[C@H]3O)cc2C)cn1 [Example 2, 1-((1R,2R)-2-hydroxy-4,4-dimethyl-1,2,3,4-tetrahydronaphthalen-1-yl)-3-(5-methyl-6-(2-methylpyrimidin-5-yl)-2-phenylpyridin-3-yl)urea]	99.8	Type I crystal	99.8	Type I crystal	99.8	Type I crystal	99.8	Type I crystal	99.8	Type I crystal	99.2	Type I crystal	98.9	Type I crystal	99.8	Type I crystal	99.8	Type I crystal	99.8	Type I crystal	Moisture absorption (Storage stability test): no moisture absorption was observed; Chemical and physical stability over the test period (Storage stability test): chemically and physically stable; Solubility ([1]; 37° C.): 0.0332 mg/mL (≈ 67.3 µM); AUC ([2]; male, Crl:CD (SD), rat, plasma, po, 600 mg/kg, oral single dose 600 mg/kg in 0.5 w/v % methylcellulose 400, read-out: Area Under Plasma Concentration (AUC)): 561 µg·h/mL; Cmax ([2]; male, Crl:CD (SD), rat, plasma, po, 600 mg/kg, oral single dose 600 mg/kg in 0.5 w/v % methylcellulose 400, read-out: Maximum Plasma Concentration (Cmax)): 29.7 µg/mL; Chemical purity (%) [3, 10]: 99.8%; Crystalline form after completion of storage period [3, 10]: Type I crystal; Stability against light ([3]; result in words, listed as type I crystal): stable against light
Cc1ncc(-c2nc(-c3ccccc3)c(NC(=O)N[C@@H]3c4ccccc4C(C)(C)C[C@H]3O)cc2C)cn1 [Example 4, 1-((1R,2R)-2-hydroxy-4,4-dimethyl-1,2,3,4-tetrahydronaphthalen-1-yl)-3-(5-methyl-6-(2-methylpyrimidin-5-yl)-2-phenylpyridin-3-yl)urea]	99.8	Type V crystal	99.8	Type V crystal	99.8	Type V crystal	99.8	Type V crystal	99.8	Type V crystal	99.8	Type V crystal	99.8	Type V crystal	99.9	Type V crystal	99.9	Type V crystal	99.9	Type V crystal	Moisture absorption (Storage stability test): no moisture absorption was observed; Chemical and physical stability over the test period (Storage stability test): chemically and physically stable; Solubility ([1]; 37° C.): 0.0601 mg/mL (≈ 122 µM); Area Under Plasma Concentration (AUC) [2, 11]: 473 µg·h/mL; Maximum Plasma Concentration (Cmax) [2, 11]: 26.9 µg/mL; Chemical purity (%) [3, 10]: 99.9%; Crystalline form after completion of storage period [3, 10]: Type V crystal; Stability against light ([3]; result in words, listed as type V crystal): stable against light
Cc1ncc(-c2nc(-c3ccccc3)c(NC(=O)N[C@@H]3c4ccccc4C(C)(C)C[C@H]3O)cc2C)cn1 [Example 5, 1-((1R,2R)-2-hydroxy-4,4-dimethyl-1,2,3,4-tetrahydronaphthalen-1-yl)-3-(5-methyl-6-(2-methylpyrimidin-5-yl)-2-phenylpyridin-3-yl)urea]	99.9	Type VI crystal	99.9	Type VI crystal	99.9	Type VI crystal	99.9	Type VI crystal	99.8	Type VI crystal	99.7	Type I crystal	99.5	Type I crystal	99.8	Type I crystal	99.8	Type I crystal	99.8	Type I crystal	Crystal form change during storage (Storage stability test; storage (open system)): transferred to the type I crystal; Solubility ([1]; phosphate buffer solution pH 6.8, 37 °C, pH 6.8, aqueous buffer, thermodynamic from solid, read-out: Solubility): 0.0411 mg/mL (≈ 83.3 µM); Chemical purity (%) [3, 10]: 99.8%; Crystalline form after completion of storage period [3, 10]: Type VI crystal; Crystal form change during photostability tests ([3]; result in words): transferred to the type I crystal; Stability against light ([3]; result in words, listed as type VI crystal): unstable against light
